One test has as its target T1, rhSTAT3 (Homo sapiens, UniProt P40763).
T1 construct: Full-length cDNAs were obtained from a human cDNA library by PCR; Avi-tag (biotinylated in BirA-BL21) (N); made in house; host or cells: Escherichia coli BirA-BL21
Kind of test: Competition assay with cysteine-blocking reagent Alexa Fluor 488 C5 maleimide. Type of test: binding. To be noted: 2 h, 10 μM Alexa Fluor 488 C5 maleimide. The procedure: rhSTAT3 (0.89 μM) in 100 mM HEPES was incubated with 10 μM Alexa Fluor 488 C5 maleimide (Invitrogen, Paisley, UK), a thiol-reactive probe, in the presence or absence of 50 or 100 μM BENDA or HP2 for 2 h at room temperature. Samples were diluted in SDS-PAGE sample buffer without boiling or 2-mercaptoethanol and run on an SDS-PAGE gel. The protein was transferred to a nitrocellulose membrane and then blotted with Ni-HRP. The Alexa-labeled rhSTAT3 was analyzed by fluorescence (excitation/emission: 493/516 nm) and western blotting with Ni-HRP.

Test [1] addresses T2, recombinant human STAT3 SH2 domain (Homo sapiens, UniProt P40763).
T2 construct: Full-length cDNAs were obtained from a human cDNA library by PCR; Avi-tag (biotinylated in BirA-BL21) (N); made in house; host or cells: Escherichia coli BirA-BL21
Kind of test: AlphaScreen SH2 binding assay, STAT3. How it is done:
(§1) AlphaScreen assays were performed in a final reaction volume of 25 μL of the assay buffer, containing 10 mM HEPES-NaOH (pH 7.4), 50 mM NaCl, 1 mM EDTA (pH 8.0), 0.1% NP-40, and 10 ng/mL BSA in a 96-well microtiter plate at 25°C. The labeled Phospho-Tyr (pTyr) peptide probe was 5-carboxyfluorescein (FITC)-GpYLPQTV for STAT3, FITC-GpYDKPHVL for STAT1, and FITC-PSpYVNVQN for Grb2. A DMSO solution of BENDA was incubated with 50 nM of each SH2-containing protein for 15 min, 50 nM of the corresponding FITC-pTyr peptide was added, and the mixture was incubated for 90 min. Streptavidin-coated donor beads and anti-FITC acceptor beads were added and incubated for 90 min before the signals were measured with an Envision Xcite plate reader (PerkinElmer Life Sciences, Waltham, MA, USA).

Test [2] deals with T3, cellular STAT3 in MDA-MB-468 cells (Homo sapiens, UniProt P40763).
T3 construct: endogenous in cells; host or cells: MDA-MB-468
The experiment in a line: Pull-down assay using Bio-BENDA, anti-STAT3 immunoprecipitation. It is filed as cell-based. To be noted: 50 μM Bio-BENDA plus excess free drug, 4 h. How it is done:
MDA-MB-468 cells were treated with biotinylated BENDA (Bio-BENDA) in the presence or absence of an excess amount of free drugs for 4 h and then lysed in PhosphoSafe™ Extraction Reagent (Merck, Darmstadt, Germany). Lysate (200 μL) was precleared with a mixture of Protein G Plus/Protein A Agarose Suspension (EMD Millipore, Billerica, MA, USA) for 1 h at 4°C and protein A and G agarose were removed by centrifugation at 13,000 rpm for 10 min. The lysate (200 μL) was immunoprecipitated with STAT3 antibody (1 μL) overnight at 4°C on a shaker and the immunocomplex was captured by the addition of a Protein G Plus/Protein A Agarose Suspension (30 μL) slurry for 1 h at 4°C. Samples were washed five times with lysis buffer and then boiled four times in SDS-PAGE sample buffer and run on an SDS-PAGE gel. The protein was transferred to a nitrocellulose membrane. The membranes were blocked in 5% skim milk in TBS/0.1% Tween 20. They were then incubated with streptavidin-HRP diluted at 1:2000 in 1.5% skim milk in TBS (pH7.4)/0.1% Tween 20 overnight at 4°C. Immunoblots were developed by using a chemiluminescent substrate.

For the next test, the system named is cells. Also on record: method as in PMID 22768280. To be noted: cited from earlier work.
Test [3] deals with T4, STAT3 Cys712 mutant (C712A) (Homo sapiens, UniProt P40763, C712A).
T4 construct: Full-length cDNAs were obtained from a human cDNA library by PCR; Avi-tag (N); 6His-tag (N); made in house; host or cells: Escherichia coli (pET-28a; host inferred to be the same BirA-BL21 as for wild type)
The experiment in a line: SH2 binding AlphaScreen assay with Cys712 mutant recombinant STAT3. To be noted: 100 μM BENDA, 375 nM mutant STAT3, 30 min. The procedure: (§2) Point mutations were introduced into recombinant human STAT3 (rhSTAT3) by inverse PCR. We mutated Cys468, Cys542, Cys550, Cys687, and Cys712 near the SH2 domain to alanine. Inverse PCR was performed by using pBluescript II KS (+) as a template, KOD-Plus-ver. 2 (Toyobo, Osaka, Japan), and the following oligonucleotide primer set: Cys468 (forward: 5’-TCCAACATCG CTCAGATGCC AAATG-3’, reverse: 5′-GATCACCACA ACTGGCAAGG AGTGG-3′); Cys542 (forward: 5′-GAATTATTCAGGGGCTCAGATCACATGGGCTAAAT-3′, reverse: 5′-ACACCAGGTC CCAAGAGTTT CTCTGCC-3′); Cys550 (forward: 5′-GCTAAATTTG CCAAAGAAAA CATGGCTGGC-3′, reverse: 5′-CCATGTGATC TGACACCCTG AATAATTCA CACC-3′); Cys687 (forward: 5′-GGAAAGTATG CTCGGCCAGA GAGCCAG-3′, reverse: 5′-GAATGCCTCC TCCTTGGGAA TGTCAGG-3′); and Cys712 (forward: 5′-AAGTTTATCG CTGTGACACC AACGACCTGC-3′, reverse: 5′-GGTCTTCAGG TATGGGGCAG CGCTAC-3′). Inverse PCR (1 × PCR buffer, 1.5 mM MgSO4, 15 pmol 5′ primer and 3′ primer, 0.2 mM dNTPs, 50 ng STAT3 cDNA, 1 U KOD Plus) was performed under the following conditions: 2 min at 94°C, (10 s at 98°C, and 6.5 min at 68°C)×7 cycles. The amplified fragment was ligated by using Ligation High ver. 2 (Toyobo). The resultant plasmid was cloned into the HindIII/XhoI sites of modified pET-28a (+). The nucleotides coding for human mutant STAT3 in pET-28a (+) were named mutant STAT3 His-Avi-pET28a (+). […]
(In general: Bead proximity is the source of the signal in Alpha formats.)

For test [4], the target named is T5, STAT3 Cys550 mutant (C550A) (Homo sapiens, UniProt P40763, C550A).
T5 construct: Full-length cDNAs were obtained from a human cDNA library by PCR; Avi-tag (N); 6His-tag (N); made in house; host or cells: Escherichia coli (pET-28a; host inferred to be the same BirA-BL21 as for wild type)
Kind of test: SH2 binding AlphaScreen assay with Cys550 mutant recombinant STAT3. To be noted: 100 μM BENDA, 375 nM mutant STAT3, 30 min. The procedure:
as §2

Another test deals with T6, STAT1 SH2 (Homo sapiens, UniProt P42224).
T6 construct: Avi-tag (N); 6His-tag (N)
The experiment in a line: AlphaScreen SH2 binding assay, STAT1. The procedure: as §1

Each structure is given as a SMILES string. Entries after “also recorded” stand apart in the source; their conditions may differ. Where two headings read alike, the source gives them in different places.

T2 sequence (P40763 whole entry, the tested form may be a part): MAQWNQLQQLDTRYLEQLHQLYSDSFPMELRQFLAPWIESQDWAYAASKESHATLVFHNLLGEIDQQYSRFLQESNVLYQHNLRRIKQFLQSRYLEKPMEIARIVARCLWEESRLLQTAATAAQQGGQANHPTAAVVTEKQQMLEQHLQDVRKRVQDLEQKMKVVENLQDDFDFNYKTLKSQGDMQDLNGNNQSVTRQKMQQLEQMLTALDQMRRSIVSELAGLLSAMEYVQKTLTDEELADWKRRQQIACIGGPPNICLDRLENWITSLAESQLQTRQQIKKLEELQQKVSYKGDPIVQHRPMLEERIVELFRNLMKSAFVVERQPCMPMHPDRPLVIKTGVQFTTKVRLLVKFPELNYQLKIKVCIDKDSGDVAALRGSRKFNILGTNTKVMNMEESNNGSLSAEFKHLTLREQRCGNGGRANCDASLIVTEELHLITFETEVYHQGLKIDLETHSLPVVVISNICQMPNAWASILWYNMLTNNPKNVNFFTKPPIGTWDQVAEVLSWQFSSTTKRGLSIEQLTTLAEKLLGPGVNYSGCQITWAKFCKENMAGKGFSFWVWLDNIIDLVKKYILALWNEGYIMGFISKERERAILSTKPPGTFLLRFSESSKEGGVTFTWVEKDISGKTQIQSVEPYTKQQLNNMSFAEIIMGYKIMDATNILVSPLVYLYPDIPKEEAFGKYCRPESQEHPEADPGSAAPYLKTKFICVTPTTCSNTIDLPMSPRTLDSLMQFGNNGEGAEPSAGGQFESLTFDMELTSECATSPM
T1 sequence (P40763 whole entry): as the sequence (P40763 whole entry, the tested form may be a part) above
T5 sequence (P40763 whole entry C550A): as the sequence (P40763 whole entry, the tested form may be a part) above, with C550A counted along it
T6 sequence (P42224 whole entry): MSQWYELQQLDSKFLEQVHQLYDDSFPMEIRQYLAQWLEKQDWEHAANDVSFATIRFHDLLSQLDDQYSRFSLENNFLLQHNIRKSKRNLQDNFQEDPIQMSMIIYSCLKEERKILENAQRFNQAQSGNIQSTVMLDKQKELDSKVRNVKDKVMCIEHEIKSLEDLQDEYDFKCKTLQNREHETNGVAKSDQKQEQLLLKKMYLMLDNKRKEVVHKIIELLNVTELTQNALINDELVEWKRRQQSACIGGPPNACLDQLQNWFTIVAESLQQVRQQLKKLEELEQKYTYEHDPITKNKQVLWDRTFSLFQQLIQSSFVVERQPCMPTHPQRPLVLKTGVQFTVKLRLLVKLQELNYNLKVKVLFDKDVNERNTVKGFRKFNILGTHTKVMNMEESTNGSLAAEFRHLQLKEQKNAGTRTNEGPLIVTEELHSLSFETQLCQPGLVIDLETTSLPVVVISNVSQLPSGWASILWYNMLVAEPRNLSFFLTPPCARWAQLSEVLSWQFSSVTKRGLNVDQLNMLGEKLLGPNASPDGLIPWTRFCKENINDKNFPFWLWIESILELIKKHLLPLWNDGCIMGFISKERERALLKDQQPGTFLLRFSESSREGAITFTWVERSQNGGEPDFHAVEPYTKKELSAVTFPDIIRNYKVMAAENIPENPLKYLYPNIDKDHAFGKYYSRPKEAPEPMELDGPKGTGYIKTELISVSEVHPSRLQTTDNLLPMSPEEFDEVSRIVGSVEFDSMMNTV
T3 sequence (P40763 2-770 limits assumed): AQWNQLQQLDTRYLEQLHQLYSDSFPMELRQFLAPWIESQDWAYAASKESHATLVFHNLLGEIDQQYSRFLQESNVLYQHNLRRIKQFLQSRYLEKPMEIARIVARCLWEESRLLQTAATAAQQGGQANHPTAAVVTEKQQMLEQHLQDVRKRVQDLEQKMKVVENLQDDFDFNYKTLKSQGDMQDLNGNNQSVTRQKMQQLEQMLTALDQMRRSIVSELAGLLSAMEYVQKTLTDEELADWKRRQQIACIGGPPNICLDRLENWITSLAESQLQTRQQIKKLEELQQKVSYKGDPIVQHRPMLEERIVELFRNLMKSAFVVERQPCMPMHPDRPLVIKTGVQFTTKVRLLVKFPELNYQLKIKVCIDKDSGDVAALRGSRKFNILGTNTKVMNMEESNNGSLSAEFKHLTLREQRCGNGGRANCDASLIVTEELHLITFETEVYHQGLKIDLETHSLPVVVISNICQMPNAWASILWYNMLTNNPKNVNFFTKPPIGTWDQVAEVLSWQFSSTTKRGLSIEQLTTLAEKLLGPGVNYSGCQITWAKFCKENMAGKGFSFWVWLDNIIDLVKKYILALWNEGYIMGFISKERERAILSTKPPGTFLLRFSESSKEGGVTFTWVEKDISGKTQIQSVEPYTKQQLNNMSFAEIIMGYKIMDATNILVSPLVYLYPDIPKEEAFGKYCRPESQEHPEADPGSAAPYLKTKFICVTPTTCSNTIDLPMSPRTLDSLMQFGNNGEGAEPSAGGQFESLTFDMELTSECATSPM
T4 sequence (P40763 whole entry C712A): as the sequence (P40763 whole entry, the tested form may be a part) above, with C712A counted along it

With `Cn1c(CCCC(=O)O)nc2cc(N(CCCl)CCCl)ccc21` [BENDA, 4-{5-[bis(2-chloroethyl)amino]-1-methyl-2-benzimidazolyl} butyric acid], the “Fluorescence intensity of Alexa-labeled rhSTAT3 (reduced to)” value on rhSTAT3 (50 μM compound) amounted to 62%; at rhSTAT3 (100 μM compound), 52%. Moreover, the IC50 in test [1] worked out at 7.4 µM; at STAT1 SH2 it was 60 µM. In addition, the “SH2 binding inhibition in presence of 2-mercaptoethanol” value in test [1] (200 μM (0.2 mM) 2-mercaptoethanol, data not shown) is listed as “did not inhibit; also recorded: wholly inactivated”. In addition, the “SH2 inhibitory activity in presence of excess L-cysteine” value in test [1] (200 μM (0.2 mM) L-cysteine added to assay mixture) is given as “attenuated; also recorded: wholly inactivated”. Further, in test [2], the “Competition of Bio-BENDA STAT3 band intensity by excess free drug” value is “competitively reduced”. In addition, the Cell cycle arrest entry is “transiently arrested cells in G2” in the test with cells (50 μM) and “arrested cells in S phase” in the test on cells (200 μM). Also, the values for the inhibition at 100 µM in test [3] and in test [4] were 25% and 3%, respectively.

One may read the IC50 as the concentration needed to halve the response being measured. A word on the inhibition: it is the change of the read-out against control, counted positive when it falls.
